Data on 1 molecule can be found in US7704985B2, “Treatment of irritable bowel syndrome and related bowel diseases” (The Board of Regents of the University of Texas System, priority 2002, dated 2010).

SMILES strings stand for the structures.

In this assay the test system is acetic acid sensitized rats. Put plainly: Behavioral response to graded colorectal distention (CRD) in neonatally acetic acid sensitized rats. The class given is in vivo, Sprague Dawley rat. The following applies: oral, 1.5 mg/kg body weight in corn oil daily for two weeks; graded CRD 10 mm-80 mm Hg; behavioral response grading 0-3. How it is done: Neonatal sensitization with acetic acid: Description of the model. It was previously shown that transient noxious stimulation of the colon during postnatal development can cause long-lasting hyperalgesia, despite complete resolution of the initiating event. In a variation of this technique, 0.3% acetic acid was instilled into the rectum of rats at postnatal days 7-10. […] By contrast, when rats are treated with acetic acid as adults, and tested after a similar period of time, no sensitization is observed. Sprague Dawley rat pups were sensitized on neonatal day 10 with acetic acid. In brief, a thin polyethylene tubing (P-90 was introduced gently into the rectum 2 cm from the anus. 0.2 ml of 0.5% glacial acetic acid in normal saline was injected through the tube into the colo rectum. The pups were allowed to grow into adults. When the rats were approximately eight weeks old they were weighed and their behavioral responses to graded (10 mm-80 mm Hg) colo rectal distention (CRD) was determined. Under light brevital (1%) anesthesia a polyethelene tube connected to a balloon (made out of a glove finger) was guided into the colo-rectum ˜8 cms from the rectum and the tube was fastened to the tail. The open end was connected to the barostat device. The rat was put into a rat restrainer allowing limited movement. […]

Regarding `CCC(=O)OCC(=O)[C@@]1(OC(=O)CC)[C@@H](C)C[C@H]2[C@@H]3CCC4=CC(=O)C=C[C@]4(C)[C@@]3(Cl)[C@@H](O)C[C@@]21C` [beclamethasone dipropionate], the “pain threshold to graded CRD compared to the vehicle treated group” value is listed as “higher pain threshold”.
